Test results reported in ChEMBL document CHEMBL1201862, “PubChem BioAssay data set” (2004).
Activity calls are given as the source filed them.

Legend:
HEK293 [1] = experiment: NOD2 signaling inhibitors in MDP-stimulated cells, cell-based, uHTS, luminescence (AID 2001); format: functional; details: Homo sapiens
[2] = target: Nucleotide-binding oligomerization domain-containing protein 2 (Homo sapiens, UniProt Q9HC29); experiment: inhibition of NOD2-driven NF-kB reporter – cell-based, luminescence, uHTS, HEK293 (AID 1566); format: functional
HEK293 [3] = experiment: cells; format: functional, cell-based; details: Homo sapiens
HEK293 [4] = experiment: inhibition of NOD1-driven NF-kB reporter – cell-based, luminescence, uHTS, primary screen (AID 1578); format: functional; details: Homo sapiens
HEK293 [5] = experiment: cells; format: functional, cell-based; details: Homo sapiens; remark: listed apart in the source
H4 = experiment: Inhibitors of Prion Protein 5' UTR mRNA Measured in Cell-Based System Using Plate Reader - 2078-01_Inhibitor_Dose_DryPowder_Activity. [Related pubchem assays (depositor defined):AID488894]; format: functional; details: Homo sapiens
[6] = blockade of melanocortin 4 receptor signaling – cell-based, plate reader, cherry pick, counter-screen for LGR2 antagonist project, dose response (AID 743444); format: functional;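 further: transfected HEK 293 cells stimulated with alpha-MSH peptide; potency of inhibitors of the alpha-MSH evoked signal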
HEK293 [7] = experiment: cells; format: functional, cell-based; details: Homo sapiens; remark: listed apart in the source
[8] = blockers of bursicon-stimulated LGR2 cAMP reporter – cell-based, HEK293, CRE-luciferase reporter, cherry pick, set 2, dose response (AID 743343); format: functional;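 further: transfected cells were stimulated with diluted bursicon conditioned medium after compound addition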
Genome polyprotein = Genome polyprotein (dengue virus type 2, UniProt P29990); experiment: flavivirus cap methylation enzyme inhibition – biochemical, confirmation dose response, primary screen (AID 588689); format: functional
[9] = target: Glutathione-S-transferase (Schistosoma japonicum, UniProt Q26513); experiment: GST-antibody interaction or FRET quenching – biochemical, TR-FRET, artefact control for Vif-APOBEC3G degradation inhibitor project, dose response (AID 1117362); format: functional
ORF 73 = ORF 73 (Human herpesvirus 8, UniProt O40947); experiment: KSHV LANA DNA-binding disruption – biochemical, fluorescence polarization, cherry-picked samples, dose response (AID 504725); design: species or system Human gammaherpesvirus 8;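 further: fluorescence polarization of a labeled DNA duplex reporting LANA DNA binding; potency is for inhibitors that block LANA binding to the DNA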
[10] = target: Induced myeloid leukemia cell differentiation protein Mcl-1 (Homo sapiens, UniProt Q07820); format: functional
[11] = target: Beta-adrenergic receptor kinase 1 (Homo sapiens, UniProt P25098); experiment: aptamer displacement from bead-bound GRK2 – biochemical, cherry pick 1, bead flow cytometry, dose response (AID 504500)
[12] = target: T1, Small ubiquitin-related modifier 1 (Homo sapiens, UniProt P63165); experiment: SUMO1 protein-protein binding blockers, potency – biochemical, FRET, dose response (AID 624383); format: functional; details: read-out: IC50_Mean
[13] = target: T1, Small ubiquitin-related modifier 1; experiment: SUMO1 protein interaction blockers, potency – biochemical, fluorescence polarization, uHTS hits, dose response (AID 624382); format: functional; details: read-out: IC50_Mean
HeLa = experiment: viability loss in HeLa cells – cell-based, 24 h, cherry-picked samples, cytotoxicity control, dose response (AID 504726); format: functional; details: Homo sapiens;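 further: potency for cytotoxicity as loss of luminescence signal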
[14] = target: Luciferin 4-monooxygenase (Photuris pensylvanica, UniProt Q27757); experiment: inhibition of Cell Titer Glo luciferase signal – biochemical, luminescence, cherry-picks, counter-screen for HSF-1 reporter inhibitor project, dose response (AID 588847)
[15] = alpha-synuclein stem-loop luciferase translation blockers – H4 neuroglioma cells, luminescence, confirmation (AID 1988); format: functional, cell-based
[16] = A549 cell cytotoxicity, dose response, cytotoxicity control, plate reader, cherry-pick, antagonist series (AID 743412); format: functional, cell-based
[17] = toxicity toward HepG2 liver cells – cell-based, plate reader, cherry-pick, antagonist series, cytotoxicity control, dose response (AID 743416); format: functional
[18] = viability loss in HEK293 cells – cell-based, plate reader, cherry-picked samples, cytotoxicity control, dose response (AID 743446); format: functional
[19] = target: Dual specificity tyrosine-phosphorylation-regulated kinase 1A (Rattus norvegicus, UniProt Q63470); format: biochemical, Homo sapiens
[20] = target: T2, Zinc finger protein mex-5 (Caenorhabditis elegans, UniProt Q9XUB2); experiment: potency of MEX-5 RNA-binding blockers – biochemical, C. elegans, fluorescence polarization, dose response (AID 1960)
T2 sequence (Q9XUB2 whole entry): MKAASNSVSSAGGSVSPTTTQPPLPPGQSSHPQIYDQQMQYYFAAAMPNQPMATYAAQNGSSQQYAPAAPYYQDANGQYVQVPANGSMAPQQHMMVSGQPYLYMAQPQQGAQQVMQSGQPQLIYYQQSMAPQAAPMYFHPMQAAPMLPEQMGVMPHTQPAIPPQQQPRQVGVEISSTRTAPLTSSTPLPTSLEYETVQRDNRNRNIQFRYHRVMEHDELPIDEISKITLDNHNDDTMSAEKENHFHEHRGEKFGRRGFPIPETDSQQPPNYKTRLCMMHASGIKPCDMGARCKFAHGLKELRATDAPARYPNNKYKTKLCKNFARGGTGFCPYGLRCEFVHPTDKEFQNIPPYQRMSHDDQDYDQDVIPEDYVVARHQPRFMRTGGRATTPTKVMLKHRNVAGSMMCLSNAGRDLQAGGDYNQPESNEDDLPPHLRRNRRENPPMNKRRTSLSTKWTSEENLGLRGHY

[21] = target: T3, RNA-binding protein pos-1 (Caenorhabditis elegans, UniProt G5EF15); experiment: disruptors of C. elegans POS-1 RNA interaction – biochemical, fluorescence polarization, dose response (AID 1964);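 further: purified POS-1 fused to maltose binding protein made in E. coli; potency of compounds blocking POS-1 binding to fluorescent RNA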
T3 sequence (G5EF15 whole entry): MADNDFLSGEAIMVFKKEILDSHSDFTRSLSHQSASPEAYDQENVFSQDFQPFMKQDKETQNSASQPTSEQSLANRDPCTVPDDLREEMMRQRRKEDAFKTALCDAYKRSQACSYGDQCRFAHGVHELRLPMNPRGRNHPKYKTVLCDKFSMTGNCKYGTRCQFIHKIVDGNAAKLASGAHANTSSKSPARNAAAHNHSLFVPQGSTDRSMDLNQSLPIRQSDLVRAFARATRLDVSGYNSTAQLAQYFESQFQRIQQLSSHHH

Major prion protein = Major prion protein (Homo sapiens, UniProt P04156); format: functional, cell-based
[22] = target: FAD-linked sulfhydryl oxidase ALR (Homo sapiens, UniProt P55789); experiment: ALR-catalysed DTT oxidation blockers – biochemical, H2O2 detection, luminescence, cherry-pick, dose response (AID 493248)
[23] = target: T4, Polyadenylate-binding protein 1 (Homo sapiens, UniProt P11940); experiment: MLLE binding blockers, Cy5 peptide tracer – biochemical, fluorescence polarization, Cy5-PAM2 peptide, secondary, miRNA deadenylation inhibitor project, dose response (AID 602260); format: functional; details: read-out: IC50_Mean
[24] = target: T5, Corticotropin-releasing factor receptor 2/Corticotropin-releasing factor-binding protein (Homo sapiens, UniProt P24387+Q13324); experiment: activators of CRF receptor 2 with binding protein – uHTS hits, confirmation (AID 602473); format: functional; details: read-out: EC50_Mean
T5 sequence (Q13324 whole entry): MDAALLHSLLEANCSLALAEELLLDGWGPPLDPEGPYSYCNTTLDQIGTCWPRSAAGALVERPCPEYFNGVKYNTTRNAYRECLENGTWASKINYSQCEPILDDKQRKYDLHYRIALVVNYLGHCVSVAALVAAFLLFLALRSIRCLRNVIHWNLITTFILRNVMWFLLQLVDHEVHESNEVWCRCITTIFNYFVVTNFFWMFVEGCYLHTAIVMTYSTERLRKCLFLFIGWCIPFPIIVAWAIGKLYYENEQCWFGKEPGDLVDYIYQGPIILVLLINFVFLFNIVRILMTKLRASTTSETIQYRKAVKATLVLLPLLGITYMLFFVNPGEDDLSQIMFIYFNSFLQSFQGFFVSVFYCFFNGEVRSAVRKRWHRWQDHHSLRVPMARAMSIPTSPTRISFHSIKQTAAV
T5 sequence (P24387 whole entry): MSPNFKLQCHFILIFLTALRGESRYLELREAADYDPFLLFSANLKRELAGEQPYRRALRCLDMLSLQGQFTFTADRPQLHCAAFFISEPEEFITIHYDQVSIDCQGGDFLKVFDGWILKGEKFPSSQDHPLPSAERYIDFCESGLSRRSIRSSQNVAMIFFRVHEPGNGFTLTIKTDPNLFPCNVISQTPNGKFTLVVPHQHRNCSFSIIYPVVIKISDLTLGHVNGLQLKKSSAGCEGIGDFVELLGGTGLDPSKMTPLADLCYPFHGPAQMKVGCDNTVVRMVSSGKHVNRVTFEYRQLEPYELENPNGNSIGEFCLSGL

[25] = target: T6, Rac GTPase-activating protein 1 (Homo sapiens, UniProt Q9H0H5); experiment: blockers of MgcRacGAP-driven Rac1 GTP hydrolysis – biochemical, ADP Hunter fluorescence, primary and confirmatory, confirmation (AID 624330); format: functional
T6 sequence (Q9H0H5 whole entry): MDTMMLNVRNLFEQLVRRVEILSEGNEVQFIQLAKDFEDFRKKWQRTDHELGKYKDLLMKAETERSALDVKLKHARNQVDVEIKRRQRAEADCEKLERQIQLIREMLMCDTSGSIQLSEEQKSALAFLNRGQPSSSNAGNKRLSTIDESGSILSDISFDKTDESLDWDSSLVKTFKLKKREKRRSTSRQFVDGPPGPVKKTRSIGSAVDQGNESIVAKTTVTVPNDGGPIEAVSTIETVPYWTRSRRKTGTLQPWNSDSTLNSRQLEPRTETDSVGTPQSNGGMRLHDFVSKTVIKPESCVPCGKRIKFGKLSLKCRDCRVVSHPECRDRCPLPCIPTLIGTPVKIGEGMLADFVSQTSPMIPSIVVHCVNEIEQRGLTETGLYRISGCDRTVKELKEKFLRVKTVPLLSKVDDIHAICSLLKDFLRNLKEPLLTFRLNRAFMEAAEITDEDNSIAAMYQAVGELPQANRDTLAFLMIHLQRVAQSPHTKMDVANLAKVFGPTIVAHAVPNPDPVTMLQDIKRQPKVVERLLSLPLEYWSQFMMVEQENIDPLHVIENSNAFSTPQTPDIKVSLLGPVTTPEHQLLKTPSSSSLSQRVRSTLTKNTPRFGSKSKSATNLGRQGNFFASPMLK

[26] = target: T5, Corticotropin-releasing factor receptor 2/Corticotropin-releasing factor-binding protein; experiment: Dose Response confirmation of uHTS hits for small molecule antagonists of the CRF-binding protein and CRF-R2 receptor complex.; format: functional; details: read-out: IC50_Mean
[27] = target: T4, Polyadenylate-binding protein 1; experiment: MLLE domain peptide-binding blockers, IC50 – biochemical, fluorescence polarization, FITC-PAM2 peptide, dose response (AID 602259); format: functional; details: read-out: IC50_Mean
Beta-galactosidase = Beta-galactosidase (Escherichia coli, UniProt Q8VNN2); experiment: PubChem AID 485352; format: functional
[28] = target: Type-1 angiotensin II receptor (Homo sapiens, UniProt P30556); experiment: antagonism of angiotensin II type 1 receptor – cell-based, uHTS hits, selectivity assay for APJ receptor antagonist project, dose response (AID 463214); format: functional;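 further: antagonist potency against angiotensin II stimulated AT1 response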
INS1 = experiment: INS-1E mitochondrial potential rescue under cytokines – cell-based, JC-1 fluorescence ratio, dry powder, dose response (AID 488931); format: functional; details: Rattus norvegicus
Cytochrome P450 3A4 = Cytochrome P450 3A4 (Homo sapiens, UniProt P08684); details: Potency;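 further: confirmatory qHTS run detecting inhibitors and substrates of CYP3A4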
[29] = target: Voltage-gated inwardly rectifying potassium channel KCNH2 (Homo sapiens, UniProt Q12809); details: Potency;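 further: confirmatory quantitative high-throughput screen measuring inhibition of hERG channel activity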

For COc1cc(NC(=O)c2cccs2)c(C(=O)OCC(=O)c2cc(C)n(-c3ccccc3)c2C)cc1OC, the IC50 (HEK293 [1]) was > 20 µM (inactive), the EC50 [2] was 7.27 µM (active) and the IC50 (HEK293 [3]) was > 20 µM (inactive). The EC50 (HEK293 [4]) was > 20 µM (inactive), the IC50 (HEK293 [5]) was > 20 µM (inactive) and the AC50 (H4) was 2.17 µM (active). For the same molecule, the AC50 [6] was 3.07 µM (active), the IC50 (HEK293 [7]) was 1.19 µM (active) and the AC50 [8] was 9.95 µM (active).
In the case of O=C(O)c1cccc2c1NC(C(=O)O)C1CC(Sc3ccccc3[N+](=O)[O-])C(Cl)C21 (centres undefined), the IC50 (Genome polyprotein) is reported as 38.9 µM (active), the IC50 [9] is reported as > 100 µM (active) and the AC50 (ORF 73) is reported as 59.6 µM (active). The IC50 [10] was 2.17 µM (active), the EC50 [11] was 19.4 µM (inactive) and the IC50 [12] was 5.21 µM (active). For the same molecule, the IC50 [13] was > 66.6 µM (inactive) and the AC50 (HeLa) was 179 µM (active).
In the case of N#CCCCC#Cc1ccc2c(c1)COc1c3ccccc3nn1-2, the AC50 [14] is reported as 1.76 µM (active), the EC50 [15] is reported as 10.1 µM (inconclusive) and the AC50 [16] is reported as > 52 µM (inactive). The AC50 [17] was > 52 µM (inactive), the AC50 [18] was > 52 µM (inactive) and the AC50 [6] was 7.77 µM (active). For the same molecule, the AC50 [8] was 6.24 µM (active).
With S=c1[nH]c2ccccc2n2c(=S)[nH]nc12 the AC50 [19] was 8 µM (active), the EC50 [20] was 6.1 µM (active) and the EC50 [21] was 10.3 µM (inconclusive). The IC50 (Major prion protein) was > 1.7 µM (active), the AC50 [22] was 2.35 µM (active) and the IC50 [23] was > 66 µM (inactive). The EC50 [24] was > 53 µM (inactive), the IC50 [25] was 56.5 µM (active) and the IC50 [26] was > 47.1 µM (inactive). For the same molecule, the IC50 [27] was > 66 µM (inactive).
In the case of Cc1cc(C(=O)NNc2ccc(C)c(C)c2)no1, the EC50 (Beta-galactosidase) is reported as > 40 µM (inactive) and the IC50 [28] is reported as 8.58 µM (active).
For COc1ccc(S(=O)(=O)N(C)C[C@@H]2Oc3c(NC(=O)Nc4c(C)noc4C)cccc3C(=O)N([C@@H](C)CO)C[C@H]2C)cc1, the AC50 (INS1) was 28 µM (active).
With CCOP(=S)(OCC)SCCSCC [DISULFOTON] the AC50 (Cytochrome P450 3A4) was 20 µM (inconclusive) and the AC50 [29] was 1 µM (inconclusive).
